Measured values from ChEMBL document CHEMBL1926526, “Mefloquine-oxazolidine derivatives, derived from mefloquine and arenecarbaldehydes: In vitro activity including against the multidrug-resistant tuberculosis strain T113” (Bioorg Med Chem, 2012).
Values after ≈ are worked out from the molar mass of the structure shown. Active and inactive are the calls of the source. The calls are words filed in the database; no cut-off is given here.

System: Mycobacterium tuberculosis
Assay: Antimycobacterial activity against multiple drug-resistant Mycobacterium tuberculosis isolate T113 by alamar blue assay
Format: functional

SMILES | MIC [µM] | Activity
COc1cccc(C2O[C@@H](c3cc(C(F)(F)F)nc4c(C(F)(F)F)cccc34)[C@H]3CCCCN23)c1 (mixture of isomers) | 25.2 | –
COc1ccc(C2O[C@@H](c3cc(C(F)(F)F)nc4c(C(F)(F)F)cccc34)[C@H]3CCCCN23)cc1 (mixture of isomers) | 25.2 | –
Fc1ccc(C2O[C@@H](c3cc(C(F)(F)F)nc4c(C(F)(F)F)cccc34)[C@H]3CCCCN23)cc1 (mixture of isomers) | 25.8 | –
Oc1ccccc1C1O[C@@H](c2cc(C(F)(F)F)nc3c(C(F)(F)F)cccc23)[C@H]2CCCCN12 (mixture of isomers) | 25.9 | –
Oc1ccc(C2O[C@@H](c3cc(C(F)(F)F)nc4c(C(F)(F)F)cccc34)[C@H]3CCCCN23)cc1 (mixture of isomers) | 25.9 | –
COc1ccccc1C1O[C@@H](c2cc(C(F)(F)F)nc3c(C(F)(F)F)cccc23)[C@H]2CCCCN12 (mixture of isomers) | 12.6 | –
O=[N+]([O-])c1ccc(C2O[C@@H](c3cc(C(F)(F)F)nc4c(C(F)(F)F)cccc34)[C@H]3CCCCN23)s1 (mixture of isomers) | 12.1 | –
FC(F)(F)c1cc([C@@H]2OC(c3cccc(Cl)c3Cl)N3CCCC[C@H]23)c2cccc(C(F)(F)F)c2n1 (mixture of isomers) | – | inactive
FC(F)(F)c1cc([C@@H]2OC(c3ccc(Cl)c(Cl)c3)N3CCCC[C@H]23)c2cccc(C(F)(F)F)c2n1 (mixture of isomers) | – | inactive
FC(F)(F)c1cc([C@@H]2OC(c3ccc(Cl)cc3Cl)N3CCCC[C@H]23)c2cccc(C(F)(F)F)c2n1 (mixture of isomers) | – | inactive
FC(F)(F)c1cc([C@@H]2OC(c3c(Cl)cccc3Cl)N3CCCC[C@H]23)c2cccc(C(F)(F)F)c2n1 (mixture of isomers) | – | inactive
COc1cccc(C2O[C@@H](c3cc(C(F)(F)F)nc4c(C(F)(F)F)cccc34)[C@H]3CCCCN23)c1OC (mixture of isomers) | 11.9 | –
CCOc1cccc(C2O[C@@H](c3cc(C(F)(F)F)nc4c(C(F)(F)F)cccc34)[C@H]3CCCCN23)c1 (mixture of isomers) | 24.5 | –
COc1cc(C2O[C@@H](c3cc(C(F)(F)F)nc4c(C(F)(F)F)cccc34)[C@H]3CCCCN23)cc(OC)c1OC (mixture of isomers) | 22.5 | –
FC(F)(F)c1cc([C@@H]2OC(c3ccccc3)N3CCCC[C@H]23)c2cccc(C(F)(F)F)c2n1 (mixture of isomers) | 26.8 | –
O=[N+]([O-])c1ccc(C2O[C@@H](c3cc(C(F)(F)F)nc4c(C(F)(F)F)cccc34)[C@H]3CCCCN23)o1 (mixture of isomers) | 99.8 | –
FC(F)(F)c1cc([C@@H]2OC(c3ncc[nH]3)N3CCCC[C@H]23)c2cccc(C(F)(F)F)c2n1 (mixture of isomers) | 27.4 | –
CC[C@@H](CO)NCCN[C@@H](CC)CO [ETHAMBUTOL] | 61.2 (≈ 12.5 µg/mL) | –
OC(c1cc(C(F)(F)F)nc2c(C(F)(F)F)cccc12)C1CCCCN1 (centres undefined) [MEFLOQUINE] | 33 (≈ 12.5 µg/mL) | –
